Earlier results on 1 compound are cited in PMC6458983 (Cancer Chemotherapy and Pharmacology, 2019).

For this data set the following is noted: cited from earlier work.

Molecules are shown by their SMILES.

Regarding `C#Cc1cccc(Nc2ncnc3cc(OCCOC)c(OCCOC)cc23)c1` [erlotinib], the trough plasma concentration entry (patient case study, at the time of ILD diagnosis) is reported as “elevated”. Under “three patients at the time of suspected ILD”, the “median trough concentrations versus patients without ILD” value is “approximately three times higher”.
